Laboratory results: patent US12371454B2, “Cyclic peptide compound having Kras inhibitory action” (priority 2019, dated 2025)
Starred links: 1 amine or outer side, 2 acyl side, 3 side chain; linkers in the order of their positions; H or OH if unused. Positions of bridges follow the written chain, without caps; N, C: chain ends. Non-standard residues stand in square brackets, D forms with d. Residues, ends and D or L forms follow the SMILES beside them. *: point of attachment. hPhe(3,5-F2-4-CF3) = N[C@@H](CCc1cc(F)c(C(F)(F)F)c(F)c1)C(=O)O; hPhe(3-Cl-4-CF3) = N[C@@H](CCc1ccc(C(F)(F)F)c(Cl)c1)C(=O)O; hPhe(3-F,4-CF3) = N[C@@H](CCc1ccc(C(F)(F)F)c(F)c1)C(=O)O; NMePhe(4-CF3) = CN[C@@H](Cc1ccc(C(F)(F)F)cc1)C(=O)O; hPhe(4-CF3) = N[C@@H](CCc1ccc(C(F)(F)F)cc1)C(=O)O; NMeAla(4-thiazolyl) = CN[C@@H](Cc1cscn1)C(=O)O; NMePhe(4-CN) = CN[C@@H](Cc1ccc(C#N)cc1)C(=O)O; NMePhe(4-Cl) = CN[C@@H](Cc1ccc(Cl)cc1)C(=O)O; NMePhe(4-Me) = CN[C@@H](Cc1ccc(C)cc1)C(=O)O; NMedβ3hAla = C[C@H](CC(=O)[*:2])N(C)[*:1]; NMeGly(cPent) = CN[C@H](C(=O)O)C1CCCC1; Phe(3-I) = N[C@@H](Cc1cccc(I)c1)C(=O)O; Pro(4,4-F2) = O=C(O)[C@@H]1CC(F)(F)CN1; NMehPhe = CN[C@@H](CCc1ccccc1)C(=O)O; NMeCha = CN[C@@H](CC1CCCCC1)C(=O)O; NMeGly(cPr) = CN[C@H](C(=O)O)C1CC1; Gly(N-(CH2)2OEt) = CCOCCNCC(=O)O; NMeF = CN[C@@H](Cc1ccccc1)C(=O)O; NMeI = CC[C@H](C)[C@H](NC)C(=O)O; NMeβAla = CN(CCC(=O)[*:2])[*:1]; NMeD = CN[C@@H](CC(=O)O)C(=O)O; CH2CONHtBu = CC(C)(C)NC(=O)C*; NMeL = CN[C@@H](CC(C)C)C(=O)O; NMeV = CN[C@H](C(=O)O)C(C)C; d(β3hA) = C[C@@H](N)CC(=O)O; NMeS = CN[C@@H](CO)C(=O)O; NMeA = CN[C@@H](C)C(=O)O; NMeAib = CNC(C)(C)C(=O)O; Nle = CCCC[C@H](N)C(=O)O; Piperidide = C1CCN(*)CC1; Pyrrolidide = C1CCN(*)C1; Ac5c = NC1(C(=O)O)CCCC1; Aze = O=C(O)[C@@H]1CCN1; Ac4c = NC1(C(=O)O)CCC1; Sar = CNCC(=O)O

Each compound was assayed against T1, Kras and SOS1 (biotin-tagged human Kras loaded with GDP, His-tagged human SOS1) (Homo sapiens, UniProt P01116, G12D) (assay: Protein-protein interaction inhibition between Kras and SOS1 (KrasGl2D-SOS PPI) using AlphaScreen). Details: AlphaScreen; biotin-tagged human Kras loaded with GDP, His-tagged human SOS1; read-out: KRAS G12D-SOS PPI IC50.
T1 construct: made in house; host or cells: E. coli (stated for Kras only)
T1 sequence (P01116 1-188 isoform P01116-2 G12D): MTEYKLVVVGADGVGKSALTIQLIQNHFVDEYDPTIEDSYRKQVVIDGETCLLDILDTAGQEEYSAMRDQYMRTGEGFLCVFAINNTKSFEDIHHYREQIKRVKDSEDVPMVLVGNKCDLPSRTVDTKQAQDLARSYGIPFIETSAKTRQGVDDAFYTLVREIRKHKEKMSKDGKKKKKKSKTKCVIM
Format: binding
Outline: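 Read-out is acceptor-bead light at 520-620 nm, arising when 680 nm-irradiated nickel donor beads pass singlet oxygen to streptavidin acceptors. The bead pair links His-tagged SOS1 with biotin-tagged, GDP-bound Kras from E. coli.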

Compound | IC50
CC[C@H](C)[C@@H]1NC(=O)[C@H](C(C)C)N(C)C(=O)C[C@@H](C)NC(=O)[C@H](CC(C)C)N(C)C(=O)C2(CCCC2)NC(=O)[C@H](CC(C)C)N(C)C(=O)[C@H](CCc2ccc(C(F)(F)F)c(F)c2)NC(=O)CN(C)C(=O)[C@H](Cc2ccc(Cl)cc2)N(C)C(=O)CN(C)C(=O)CN(C)C1=O [Compound 851] (cyclo([Ac5c][NMeL][d(β3hA)][NMeV]I[Sar][Sar][NMePhe(4-Cl)][Sar][hPhe(3-F,4-CF3)][NMeL])) | 27 nM
CC[C@H](C)[C@@H]1NC(=O)[C@H](CC(C)C)N(C)C(=O)C[C@@H](C(=O)N(C)C)N(C)C(=O)[C@H]([C@@H](C)CC)N(C)C(=O)[C@H](C)NC(=O)[C@H](Cc2cscn2)N(C)C(=O)[C@H](CCc2ccc(C(F)(F)F)c(Cl)c2)NC(=O)CN(C)C(=O)[C@H](Cc2ccc(C)cc2)N(C)C(=O)[C@@H]2CCN2C(=O)[C@H](C)N(C)C1=O [Compound 856] ([NMeL]I[NMeA][Aze][NMePhe(4-Me)][Sar][hPhe(3-Cl-4-CF3)][NMeAla(4-thiazolyl)]A[NMeI][NMeD]-NMe2; lactam N-11) | 14 nM
CC[C@H](C)[C@@H]1NC(=O)[C@H](C2CCCC2)N(C)C(=O)C[C@@H](C)NC(=O)[C@H](C(C)C)N(C)C(=O)C2(CCCC2)NC(=O)[C@@H]2CCCN2C(=O)[C@H](CCc2ccc(C(F)(F)F)c(Cl)c2)NC(=O)CN(C)C(=O)[C@H](CC2CCCCC2)N(C)C(=O)CN(C)C(=O)CN(C)C1=O [Compound 857] (cyclo([Ac5c][NMeV][d(β3hA)][NMeGly(cPent)]I[Sar][Sar][NMeCha][Sar][hPhe(3-Cl-4-CF3)]P)) | 17 nM
CC[C@H](C)[C@@H]1NC(=O)[C@H](C)N(C)C(=O)C[C@@H](C(=O)N2CCCCC2)NC(=O)[C@H](CC(C)C)N(C)C(=O)[C@H](Cc2ccccc2)N(C)C(=O)[C@H](CC(C)C)NC(=O)[C@H](CCc2ccc(C(F)(F)F)c(Cl)c2)NC(=O)CN(C)C(=O)[C@H](Cc2ccc(Cl)cc2)N(C)C(=O)CN(C)C(=O)CN(C)C1=O [Compound 861] ([NMeA]I[Sar][Sar][NMePhe(4-Cl)][Sar][hPhe(3-Cl-4-CF3)]L[NMeF][NMeL]D-Piperidide; lactam N-11) | 4.5 nM
CC[C@H](C)[C@@H]1NC(=O)[C@H](CC(C)C)N(C)C(=O)C[C@@H](C)N(C)C(=O)[C@H]([C@@H](C)CC)N(C)C(=O)C2(CCCC2)NC(=O)[C@@H]2CC(F)(F)CN2C(=O)[C@H](CCc2cc(F)c(C(F)(F)F)c(F)c2)NC(=O)CN(C)C(=O)[C@H](Cc2ccc(C(F)(F)F)cc2)N(C)C(=O)[C@@H]2CCN2C(=O)[C@H](C)N(C)C1=O [Compound 863] (cyclo([Ac5c][NMeI][NMedβ3hAla][NMeL]I[NMeA][Aze][NMePhe(4-CF3)][Sar][hPhe(3,5-F2-4-CF3)][Pro(4,4-F2)])) | 2.5 nM
CCOCCN1CC(=O)N(C)[C@@H](CC2CCCCC2)C(=O)N(C)CC(=O)N[C@@H](CCc2ccc(C(F)(F)F)c(Cl)c2)C(=O)N2CCC[C@H]2C(=O)NC2(CCCC2)C(=O)N(C)[C@@H](C(C)C)C(=O)N[C@H](C)CC(=O)N(C)[C@@H](CC(C)C)C(=O)N[C@@H]([C@@H](C)CC)C(=O)N(C)CC1=O [Compound 864] (cyclo([Ac5c][NMeV][d(β3hA)][NMeL]I[Sar][Gly(N-(CH2)2OEt)][NMeCha][Sar][hPhe(3-Cl-4-CF3)]P)) | 73 nM
CC[C@H](C)[C@@H]1NC(=O)[C@H](C)N(C)C(=O)C[C@@H](C)NC(=O)[C@H](C(C)C)N(C)C(=O)[C@H](Cc2ccccc2)N(C)C(=O)[C@@H]2CCCN2C(=O)[C@H](CCc2ccc(C(F)(F)F)cc2)NC(=O)CN(C)C(=O)[C@H](Cc2ccc(Cl)cc2)N(C)C(=O)CN(C)C(=O)CN(C)C1=O [Compound 865] (cyclo(I[Sar][Sar][NMePhe(4-Cl)][Sar][hPhe(4-CF3)]P[NMeF][NMeV][d(β3hA)][NMeA])) | 55 nM
CC[C@H](C)[C@@H]1NC(=O)[C@H](CC(C)C)N(C)C(=O)C[C@@H](C(=O)N2CCCCC2)N(C)C(=O)[C@H](C(C)C)N(C)C(=O)C2(CCCC2)NC(=O)[C@@H]2CCCN2C(=O)[C@H](CCc2ccc(C(F)(F)F)c(Cl)c2)NC(=O)CN(C)C(=O)[C@H](Cc2ccc(C#N)cc2)N(C)C(=O)CN(C)C(=O)CN(C)C1=O [Compound 867] ([NMeL]I[Sar][Sar][NMePhe(4-CN)][Sar][hPhe(3-Cl-4-CF3)]P[Ac5c][NMeV][NMeD]-Piperidide; lactam N-11) | 3.4 nM
CC[C@H](C)[C@@H]1NC(=O)[C@H](CC(C)C)N(C)C(=O)C[C@@H](C)N(C)C(=O)[C@H]([C@@H](C)CC)N(C)C(=O)C2(CCC2)NC(=O)[C@@H]2CC(F)(F)CN2C(=O)[C@H](CCc2ccc(C(F)(F)F)c(Cl)c2)NC(=O)CN(C)C(=O)[C@H](Cc2ccc(C)cc2)N(C)C(=O)CN(C)C(=O)CN(C)C1=O [Compound 869] (cyclo([Ac4c][NMeI][NMedβ3hAla][NMeL]I[Sar][Sar][NMePhe(4-Me)][Sar][hPhe(3-Cl-4-CF3)][Pro(4,4-F2)])) | 9.8 nM
CC[C@H](C)[C@@H]1NC(=O)[C@H](C)N(C)C(=O)C[C@@H](C)NC(=O)[C@H](CC(C)C)N(C)C(=O)[C@H](Cc2ccccc2)N(C)C(=O)[C@@H]2CC(F)(F)CN2C(=O)[C@H](CCc2ccc(C(F)(F)F)cc2)NC(=O)CN(C)C(=O)[C@H](Cc2ccc(Cl)cc2)N(C)C(=O)CN(C)C(=O)CN(C)C1=O [Compound 870] (cyclo(I[Sar][Sar][NMePhe(4-Cl)][Sar][hPhe(4-CF3)][Pro(4,4-F2)][NMeF][NMeL][d(β3hA)][NMeA])) | 15 nM
CC[C@H](C)[C@@H]1NC(=O)[C@H](CC(C)C)N(C)C(=O)C[C@@H](C)N(C)C(=O)[C@H](C2CC2)N(C)C(=O)C2(CCCC2)NC(=O)[C@@H]2CCCN2C(=O)[C@H](CCc2ccc(C(F)(F)F)c(Cl)c2)NC(=O)CN(C)C(=O)[C@H](CC2CCCCC2)N(C)C(=O)CN(C)C(=O)CN(C)C1=O [Compound 874] (cyclo([Ac5c][NMeGly(cPr)][NMedβ3hAla][NMeL]I[Sar][Sar][NMeCha][Sar][hPhe(3-Cl-4-CF3)]P)) | 25 nM
CCCC[C@@H]1NC(=O)[C@H](Cc2cccc(I)c2)NC(=O)CN(C)C(=O)[C@H](Cc2ccc(Cl)cc2)N(C)C(=O)CN(C)C(=O)CN(C)C(=O)[C@H]([C@@H](C)CC)NC(=O)[C@H](CC(C)C)N(C)C(=O)C[C@@H](C(=O)N2CCCCC2)N(C)C(=O)[C@H](CC(C)C)NC(=O)[C@H](Cc2ccc(C)cc2)N(C)C1=O [Compound 876] ([NMeL]I[Sar][Sar][NMePhe(4-Cl)][Sar][Phe(3-I)][Nle][NMePhe(4-Me)]L[NMeD]-Piperidide; lactam N-11) | 18 nM
CC[C@H](C)[C@@H]1NC(=O)[C@H](C)N(C)C(=O)C[C@@H](C(=O)N2CCCC2)NC(=O)[C@H](CC(C)C)N(C)C(=O)[C@H](CCc2ccccc2)N(C)C(=O)[C@H](CC(C)C)NC(=O)[C@H](CCc2ccc(C(F)(F)F)cc2)NC(=O)CN(C)C(=O)[C@H](Cc2ccc(Cl)cc2)N(C)C(=O)CN(C)C(=O)CN(C)C1=O [Compound 878] ([NMeA]I[Sar][Sar][NMePhe(4-Cl)][Sar][hPhe(4-CF3)]L[NMehPhe][NMeL]D-Pyrrolidide; lactam N-11) | 320 nM
CC[C@H](C)[C@@H]1NC(=O)[C@H](CC(C)C)N(C)C(=O)CCN(C)C(=O)[C@H](C(C)C)N(C)C(=O)C2(CCCC2)NC(=O)[C@@H]2CCCN2C(=O)[C@H](CCc2ccc(C(F)(F)F)c(F)c2)NC(=O)CN(C)C(=O)[C@H](CC2CCCCC2)N(C)C(=O)CN(C)C(=O)CN(C)C1=O [Compound 879] (cyclo([Ac5c][NMeV][NMeβAla][NMeL]I[Sar][Sar][NMeCha][Sar][hPhe(3-F,4-CF3)]P)) | 36 nM
CC[C@H](C)[C@@H]1NC(=O)[C@H](C)N(C)C(=O)C[C@@H](C(=O)N2CCCC2)NC(=O)[C@H](CC(C)C)N(C)C(=O)[C@H](Cc2ccccc2)N(C)C(=O)[C@H](CC(C)C)NC(=O)[C@H](Cc2cccc(I)c2)NC(=O)CN(C)C(=O)[C@H](Cc2ccc(Cl)cc2)N(C)C(=O)CN(C)C(=O)CN(C)C1=O [Compound 884] ([NMeA]I[Sar][Sar][NMePhe(4-Cl)][Sar][Phe(3-I)]L[NMeF][NMeL]D-Pyrrolidide; lactam N-11) | 63 nM
CC[C@H](C)[C@@H]1NC(=O)[C@H](CC(C)C)N(C)C(=O)C[C@@H](C)N(C)C(=O)[C@H](CC(C)C)NC(=O)C(C)(C)N(C)C(=O)[C@H](CC(C)C)NC(=O)[C@H](CCc2ccc(C(F)(F)F)c(Cl)c2)NC(=O)CN(C)C(=O)[C@H](CC2CCCCC2)N(C)C(=O)[C@@H]2CCN2C(=O)[C@H](C)N(C)C1=O [Compound 886] (cyclo([Aze][NMeCha][Sar][hPhe(3-Cl-4-CF3)]L[NMeAib]L[NMedβ3hAla][NMeL]I[NMeA])) | 100 nM
CC[C@H](C)[C@@H]1NC(=O)[C@H](C)N(C)C(=O)C[C@@H](C(=O)N2CCCC2)NC(=O)[C@H](CC(C)C)N(C)C(=O)[C@H](COCC(=O)NC(C)(C)C)N(C)C(=O)[C@H](CC(C)C)NC(=O)[C@H](CCc2ccc(C(F)(F)F)cc2)NC(=O)CN(C)C(=O)[C@H](Cc2ccc(Cl)cc2)N(C)C(=O)CN(C)C(=O)CN(C)C1=O [Compound 889] ([NMeA]I[Sar][Sar][NMePhe(4-Cl)][Sar][hPhe(4-CF3)]L[NMeS](CH2CONHtBu)[NMeL]D-Pyrrolidide; lactam N-11) | 70 nM
CC[C@H](C)[C@@H]1NC(=O)[C@H](CC(C)C)N(C)C(=O)C[C@@H](C)N(C)C(=O)[C@H]([C@@H](C)CC)N(C)C(=O)C2(CCC2)NC(=O)[C@@H]2CC(F)(F)CN2C(=O)[C@H](CCc2ccc(C(F)(F)F)c(Cl)c2)NC(=O)CN(C)C(=O)[C@H](CC2CCCCC2)N(C)C(=O)CN(C)C(=O)CN(C)C1=O [Compound 891] (cyclo([Ac4c][NMeI][NMedβ3hAla][NMeL]I[Sar][Sar][NMeCha][Sar][hPhe(3-Cl-4-CF3)][Pro(4,4-F2)])) | 9.6 nM
